Experimental data published in patent US12075788B2, “Antimicrobial nano-emulsion” (Laboratoire M2, priority 2019, dated 2024).

Experiments:
[1] = tested on: Erwinia amylovora streptomycin sensitive strain (435s); test: Detached apple flower assay for fire blight blossom infection, streptomycin sensitive strain; assay type: in vivo; details: Streptomycin 17 0.6 g/L; 7 days after inoculation; FIG. 12
Description: (§1) Refrigerated dormant 2-year potted apple trees (cv Gala) were forced to bloom at room temperature in late March 2019. Fresh individual flowers were handpicked as they bloomed and placed in small vials containing 10% sucrose, ensuring their pedicels were submerged. The vials were inserted in racks that were placed in small air-tight boxes for incubation at 25° C. A thin layer of a glycerol water solution (33% w/w) in each box maintained constant humidity. Flowers were individually inoculated directly in the hypanthium with 10 μL of a 10^5 CFU/mL suspension of Erwinia amylovora in PBS with Tween 20 at 0.1% w/w. Half the flowers were inoculated with a streptomycin resistant strain (1535m5) collected in Oregon, USA, and the other half with a local streptomycin sensitive strain (435s). […] Approximately 30 minutes after inoculation, 10 randomly selected individual flowers of each strain organized in 5 blocks were flooded with 32 μL of each treatment. […] Severity scores excluding streptomycin treated flowers were analyzed with a cumulative link mixed model (clmm) in the “ordinal” package of R(Christensen 2015) using blocks as a random effect. Because of separation, data with streptomycin were analyzed with the “bract” function of the package “brglm2” under R using mean bias reduction (Kosmidis, Pagui, and Sartori 2019). […]

[2] = tested on: Erwinia amylovora streptomycin resistant strain (1535m5); test: Detached apple flower assay for fire blight blossom infection, streptomycin resistant strain; assay type: in vivo; details: Streptomycin 17 0.6 g/L; 7 days after inoculation; FIG. 12
Description: as §1

[3] = concentration similar to body care products; cited from earlier work
[4] = Rats fed 300 mg per day; cited from earlier work
[5] = cited from earlier work

Row | Structure (SMILES) | effect on fire blight on flowers [1] | effect on fire blight on flowers [2] | irritation and sensitization [3] | effects of feeding [4] | acceptable daily intake ([5]; European Food Safety Authority (EFSA)) | maximum acceptable daily intake for humans ([5]; USA)
1 | [H]/N=C(/N)N[C@H]1[C@H](O)[C@@H](O)[C@H](O[C@@H]2O[C@@H](C)[C@](O)(C=O)[C@H]2O[C@@H]2O[C@@H](CO)[C@H](O)[C@@H](O)[C@@H]2NC)[C@@H](N/C(N)=N\[H])[C@@H]1O [streptomycin] | strongly inhibited fire blight | no effect |  |  |  | 
2 | C/C=C/C=C/C(=O)[O-].[K+] [potassium sorbate] |  |  | practically non-irritating and non-sensitizing | no observed deleterious effects | 3 mg per kg of body weight per day | 25 mg per kg of body weight per day
